Each structure is given as a SMILES string. pIC50: −log10 of the molar value.

The assay addresses T1, HCV polymerase (NS5B570n-Con1) (Hepatitis C virus genotype 1b, UniProt Q9WMX2).
T1 construct: contains a 21 amino acid deletion at the C-terminus relative to the full-length HCV polymerase; 6-histidine (N); made in house; host or cells: E. coli BL21 (DE) pLysS
The assay can be described thus: HCV NS5B RNA polymerase activity assay. The assay is classed as biochemical, HCV Con1 strain. Particulars: IC50 NS5B polymerase assay, Table I. How it is done: The enzymatic activity of HCV polymerase (NS5B570n-Con1) was measured as the incorporation of radiolabeled nucleotide monophosphates into acid insoluble RNA products. Unincorporated radiolabeled substrate was removed by filtration and scintillant was added to the washed and dried filter plate containing radiolabeled RNA product. The amount of RNA product generated by NS5B570-Con1 at the end of the reaction was directly proportional to the amount of light emitted by the scintillant.
The N-terminal 6-histidine tagged HCV polymerase, derived from HCV Con1 strain, genotype 1b (NS5B570n-Con1) contains a 21 amino acid deletion at the C-terminus relative to the full-length HCV polymerase and was purified from E. coli strain BL21 (DE) pLysS. The construct, containing the coding sequence of HCV NS5B Con1 (GenBank accession number AJ242654) was inserted into the plasmid construct pETI 7b, downstream of a T7 promoter expression cassette and transformed into E. coli. A single colony was grown overnight as a starter culture and later used inoculate 10 L of LB media supplemented with 100 μg/mL ampicillin at 37° C. Protein expression was induced by the addition of 0.25 mM isopropyl-β-D-thiogalactopyranoside (IPTG) when optical density at […] of the culture was between 0.6 and 0.8 and cells were harvested after 16 to 18 h at 30° C. NS5B570n-Con1 was purified to homogeneity using a three-step protocol including subsequent column chromatography on Ni-NTA, SP-Sepharose HP and Superdex 75 resins.
Each 50 μl enzymatic reaction contained 20 nM RNA template derived from the complementary sequence of the Internal Ribosome Entry Site (cIRES), 20 nM NS5B570n-Con1 enzyme, 0.5 μCi of tritiated UTP (Perkin Elmer catalog no. TRK-412; specific activity: 30 to 60 Ci/mmol; stock solution concentration from 7.5×10^-5 M to 20.6×10^-6 M), 1 μM each ATP, CTP, and GTP, 40 mM Tris-HCl pH 8.0, 40 mM NaCl, 4 mM DTT (dithiothreitol), 4 mM MgCl2, and 5 μl of compound serial diluted in DMSO. Reaction mixtures were assembled in 96-well filter plates (cat #MADVN0B, Millipore Co.) and incubated for 2 h at 30° C. Reactions were stopped by addition of 10% final (v/v) trichloroacetic acid and incubated for 40 min at 4° C. Reactions were filtered, washed with 8 reaction volumes of 10% (v/v) trichloroacetic acetic acid, 4 reaction volumes of 70% (v/v) ethanol, air dried, and 25 μl of scintillant (Microscint 20, Perkin-Elmer) was added to each reaction well.
The amount of light emitted from the scintillant was converted to counts per minute (CPM) on a Topcount® plate reader (Perkin-Elmer, Energy Range: Low, Efficiency Mode Normal, Count Time: 1 min, Background Subtract: none, Cross talk reduction: Off).
Data was analyzed in Excel® (Microsoft®) and ActivityBase® (idbsg). The reaction in the absence of enzyme was used to determine the background signal, which was subtracted from the enzymatic reactions. Positive control reactions were performed in the absence of compound, from which the background corrected activity was set as 100% polymerase activity. All data was expressed as a percentage of the positive control. The compound concentration at which the enzyme-catalyzed rate of RNA synthesis was reduced by 50% (IC50) was calculated by fitting
[formula] equation (t) to the data.where “Y” corresponds to the relative enzyme activity (in %), “% Min” is the residual relative activity at saturating compound concentration, “% Max” is the relative maximum enzymatic activity, “X” corresponds to the compound concentration, and “S” is the Hill coefficient (or slope).
Broadly, the pIC50 is the IC50 on a negative log10 scale, so that one unit is a factor of ten. A lower pIC50 goes with a high IC50. Molecule `CNC(=O)c1c(-c2ccc(Nc3ccc(F)cc3)cc2)oc2cc(N(CCO)S(C)(=O)=O)c(OC)cc12` [Compound I-2] gave a pIC50 of 7.00.
As for `CNC(=O)c1c(-c2ccc(Nc3ccc(Cl)cc3)cc2)oc2cc(N(CCO)S(C)(=O)=O)c(OC)cc12` [Compound I-3], the figure is 6.67; as for `CNC(=O)c1c(-c2ccc(Oc3ccccc3)cc2)oc2cc(N(CCO)S(C)(=O)=O)c(OC)cc12` [Compound I-4, 6-[(2-Hydroxy-ethyl)-methanesulfonyl-amino]-5-methoxy-2-(4-phenoxy-phenyl)-benzofuran-3-carboxylic acid methylamide], 7.21.
As for `CNC(=O)c1c(-c2ccc(Nc3ccccc3F)cc2)oc2cc(N(CCO)S(C)(=O)=O)c(OC)cc12` [Compound I-5], the figure is 7.47.
As for `CNC(=O)c1c(-c2ccc(Nc3cccc(OC)c3)cc2)oc2cc(N(CCO)S(C)(=O)=O)c(OC)cc12` [Compound I-7], the figure is 6.87; as for `CNC(=O)c1c(-c2ccc(Oc3ccc(F)cc3)cc2)oc2cc(N(CCO)S(C)(=O)=O)c(OC)cc12` [Compound I-8], 7.24; as for `CNC(=O)c1c(-c2ccc(Oc3ccccc3F)cc2)oc2cc(N(CCO)S(C)(=O)=O)c(OC)cc12` [Compound I-9], 7.07.
For the molecule `CNC(=O)c1c(-c2ccc(Nc3ccc(F)c(F)c3)cc2)oc2cc(N(CCO)S(C)(=O)=O)c(OC)cc12` [Compound I-10], the pIC50 was 7.19.
The molecule `CNC(=O)c1c(-c2ccc(Nc3ccc(C(F)(F)F)cc3)cc2)oc2cc(N(CCO)S(C)(=O)=O)c(OC)cc12` [Compound I-11] gave a pIC50 of 5.71.
As for `CNC(=O)c1c(-c2ccc(Nc3cccc(C#N)c3)cc2)oc2cc(N(CCO)S(C)(=O)=O)c(OC)cc12` [Compound I-12], the figure is 6.53; as for `CNC(=O)c1c(-c2ccc(Nc3ccc(C#N)cc3)cc2)oc2cc(N(CCO)S(C)(=O)=O)c(OC)cc12` [Compound I-13], 5.73; as for `CNC(=O)c1c(-c2ccc(Nc3ccc(F)cc3F)cc2)oc2cc(N(CCO)S(C)(=O)=O)c(OC)cc12` [Compound I-14], 7.62.
The figure for `CNC(=O)c1c(-c2ccc(Nc3ccc(F)c(Cl)c3)cc2)oc2cc(N(CCO)S(C)(=O)=O)c(OC)cc12` [Compound I-15] is 7.09; for `CNC(=O)c1c(-c2ccc(Nc3cc(F)cc(F)c3)cc2)oc2cc(N(CCO)S(C)(=O)=O)c(OC)cc12` [Compound I-16] it is 6.76.
As for `CCN(c1cc2oc(-c3ccc(Nc4ccc(F)cc4)cc3)c(C(=O)NC)c2cc1OC)S(C)(=O)=O` [Compound I-17], the figure is 7.09; as for `CCN(c1cc2oc(-c3ccc(Nc4ccccc4F)cc3)c(C(=O)NC)c2cc1OC)S(C)(=O)=O` [Compound I-18], 8.30.
With `CNC(=O)c1c(-c2ccc(Nc3ccc(C)cc3)cc2)oc2cc(N(CCO)S(C)(=O)=O)c(OC)cc12` [Compound I-20], the pIC50 is 7.04.
The figure for `CNC(=O)c1c(-c2ccc(Nc3cccc(F)c3F)cc2)oc2cc(N(CCO)S(C)(=O)=O)c(OC)cc12` [Compound I-21] is 7.23; for `CNC(=O)c1c(-c2ccc(Oc3cccc(F)c3F)cc2)oc2cc(N(CCO)S(C)(=O)=O)c(OC)cc12` [Compound I-22] it is 7.26; for `CCN(c1cc2oc(-c3ccc(Oc4ccccc4F)cc3)c(C(=O)NC)c2cc1OC)S(C)(=O)=O` [Compound I-23] it is 7.28.
The figure for `CCN(c1cc2oc(-c3ccc(Oc4ccc(F)cc4)cc3)c(C(=O)NC)c2cc1OC)S(C)(=O)=O` [Compound I-24] is 6.89; for `CNC(=O)c1c(-c2ccc(Nc3c(F)cccc3F)cc2)oc2cc(N(CCO)S(C)(=O)=O)c(OC)cc12` [Compound I-25] it is 6.91.
As for `CNC(=O)c1c(-c2ccc(Oc3cccc(F)c3)cc2)oc2cc(N(CCO)S(C)(=O)=O)c(OC(C)C)cc12` [Compound I-26], the figure is 7.09; as for `CNC(=O)c1c(-c2ccc(Oc3ccc(Cl)cc3)cc2)oc2cc(N(CCO)S(C)(=O)=O)c(OC(C)C)cc12` [Compound I-27], 7.15; as for `CNC(=O)c1c(-c2ccc(Nc3ccccc3)cc2)oc2cc(N(CCO)S(C)(=O)=O)c(OC(C)C)cc12` [Compound I-28, 6-[(2-Hydroxy-ethyl)-methanesulfonyl-amino]-5-isopropoxy-2-(4-phenylamino-phenyl)-benzofuran-3-carboxylic acid methylamide], 7.38.
The molecule `CNC(=O)c1c(-c2ccc(Nc3cccc(F)c3)cc2)oc2cc(N(CCO)S(C)(=O)=O)c(OC(C)C)cc12` [Compound I-29] had a pIC50 of 7.03.
In the case of `CNC(=O)c1c(-c2ccc(Nc3ccc(Cl)cc3)cc2)oc2cc(N(CCO)S(C)(=O)=O)c(OC(C)C)cc12` [Compound I-30], the pIC50 is 6.09.
For `CNC(=O)c1c(-c2ccc(Nc3ccc(F)cc3)cc2)oc2cc(N(CCO)S(C)(=O)=O)c(OC(C)C)cc12` [Compound I-31], the pIC50 is 7.04.
The figure for `CNC(=O)c1c(-c2ccc(Nc3ccccc3F)cc2)oc2cc(N(CCO)S(C)(=O)=O)c(OC(C)C)cc12` [Compound I-34] is 7.19; for `CNC(=O)c1c(-c2ccc(Oc3ccc(F)cc3)cc2)oc2cc(N(C)S(C)(=O)=O)c(OC)cc12` [Compound I-35] it is 7.29.
The figure for `CNC(=O)c1c(-c2ccc(Oc3ccccc3F)cc2)oc2cc(N(C)S(C)(=O)=O)c(OC)cc12` [Compound I-36] is 7.32; for `CNC(=O)c1c(-c2ccc(Oc3cccc(Cl)c3)cc2)oc2cc(N(CCO)S(C)(=O)=O)c(OC)cc12` [Compound I-38] it is 7.30; for `CNC(=O)c1c(-c2ccc(Oc3ccc(F)cc3F)cc2)oc2cc(N(CCO)S(C)(=O)=O)c(OC(C)C)cc12` [Compound I-39] it is 6.71.
As for `CCN(c1cc2oc(-c3ccc(Oc4ccc(F)cc4)cc3)c(C(=O)NC)c2cc1C1CC1)S(C)(=O)=O` [Compound I-42], the figure is 6.84; as for `CNC(=O)c1c(-c2ccc(Oc3ccc(F)cc3)cc2)oc2cc(NS(C)(=O)=O)c(OC)cc12` [Compound I-43], 6.62; as for `CNC(=O)c1c(-c2ccc(Oc3ccccc3Cl)cc2)oc2cc(N(CCO)S(C)(=O)=O)c(OC)cc12` [Compound I-44], 7.09.
In turn, `CNC(=O)c1c(-c2ccc(Oc3ccc(F)c(F)c3)cc2)oc2cc(N(CCO)S(C)(=O)=O)c(OC)cc12` [Compound I-45] gave a pIC50 of 7.32.
`CNC(=O)c1c(-c2ccc(Oc3cccc(Cl)c3)cc2)oc2cc(N(CCO)S(C)(=O)=O)c(OC(C)C)cc12` [Compound I-46] gave a pIC50 of 7.29.
`CNC(=O)c1c(-c2ccc(Oc3cccc(C#N)c3)cc2)oc2cc(N(CCO)S(C)(=O)=O)c(OC)cc12` [Compound I-47] had a pIC50 of 6.47.
The molecule `CNC(=O)c1c(-c2ccc(Oc3ccc(C#N)cc3)cc2)oc2cc(N(CCO)S(C)(=O)=O)c(OC)cc12` [Compound I-48] gave a pIC50 of 5.97.
As for `CNC(=O)c1c(-c2ccc(Oc3ccccc3Cl)cc2)oc2cc(N(CCO)S(C)(=O)=O)c(OC(C)C)cc12` [Compound I-49], the figure is 6.84.
As for `CNC(=O)c1c(-c2ccc(Oc3ccc(F)c(F)c3)cc2)oc2cc(N(CCO)S(C)(=O)=O)c(OC(C)C)cc12` [Compound I-50], the figure is 6.58.
The figure for `CCc1cc2c(C(=O)NC)c(-c3ccc(Oc4ccc(F)cc4)cc3)oc2cc1N(CCO)S(C)(=O)=O` [Compound I-51, 5-Ethyl-2-[4-(4-fluoro-phenoxy)-phenyl]-6-[(2-hydroxy-ethyl)-methanesulfonyl-amino]-benzofuran-3-carboxylic acid methylamide] is 7.06.

These data come from US8071797B2 (priority 2008, dated 2011).
